# Source: patent publication US4481149A, “Fluorine-containing phenyl benzoate compounds, and their production and use” (Daikin Kogyo Co., Ltd., priority 1978, dated 1984)
# Test: Temperature range of liquid crystal (MR)
# Assay type: physicochemical
# Conditions: Table 1
row,Structure (SMILES),Temperature (MR) Range of liquid crystal
1,"CCCCCCCOc1ccc(C(=O)Oc2ccc(C(F)(F)F)cc2)cc1 [Example 9, p'-trifluoromethylphenyl p-n-heptyloxybenzoate]",62.9-74.3 °C
2,N#Cc1ccc(OC(=O)c2ccc(C(F)(F)C(F)(F)C(F)(F)C(F)(F)C(F)(C(F)(F)F)C(F)(F)F)cc2)cc1 [Example 13],109.6-121.3 °C
3,"CCCCCCCCOc1ccc(C(=O)Oc2ccc(C(F)(F)F)cc2)cc1 [Example 10, p'-trifluoromethylphenyl p-n-octyloxybenzoate]",62.5-72.5 °C
4,O=C(Oc1ccc([N+](=O)[O-])cc1)c1ccc(C(F)(F)C(F)(F)C(F)(C(F)(F)F)C(F)(F)F)cc1 [Example 20],68.6-79.2 °C
5,"N#Cc1ccc(OC(=O)c2ccc(C(F)(F)C(F)(F)C(F)(C(F)(F)F)C(F)(F)F)cc2)cc1 [Example 12, p'-Cyanophenyl p-(3-trifluoromethylperfluorobutyl)benzoate]",90.0-98.5 °C
6,"CCCCCCOc1ccc(C(=O)Oc2ccc(C(F)(F)F)cc2)cc1 [Example 8, p'-trifluoromethylphenyl p-n-hexyloxybenzoate]",74.7-76.5 °C
7,N#Cc1ccc(OC(=O)c2ccc(C(F)(F)C(F)(F)C(F)(F)C(F)(F)C(F)(F)C(F)(F)C(F)(C(F)(F)F)C(F)(F)F)cc2)cc1 [Example 14],130.7-140.7 °C
8,N#Cc1ccc(OC(=O)c2ccc(C(F)(F)C(F)(F)C(F)(F)C(F)(F)C(F)(F)C(F)(F)C(F)(F)C(F)(F)F)cc2)cc1 [Example 16],118-145 °C
9,N#Cc1ccc(OC(=O)c2ccc(C(F)(F)C(F)(F)C(F)(F)C(F)(F)C(F)(F)C(F)(F)F)cc2)cc1 [Example 15],99.8-123.3 °C

# Same assay, conditions: Table 1; monotropic
row,Structure (SMILES),Temperature (MR) Range of liquid crystal
1,CCCCOc1ccc(C(=O)Oc2ccc(C(F)(F)F)cc2)cc1 [C4 H9 O / CF3],93.4 °C
2,"CCCCc1ccc(C(=O)Oc2ccc(C(F)(F)F)cc2)cc1 [Example 1, p'-trifluoromethylphenyl p-n-butylbenzoate]",67.8 °C
3,O=C(Oc1ccc(C(F)(F)F)cc1)c1ccc(C(F)(F)C(F)(F)C(F)(C(F)(F)F)C(F)(F)F)cc1 [Example 19],67.5-68.7 °C
4,"CCCCCc1ccc(C(=O)Oc2ccc(C(F)(F)F)cc2)cc1 [Example 2, p'-trifluoromethylphenyl p-n-pentylbenzoate]",66.8 °C
5,"CCCCCCc1ccc(C(=O)Oc2ccc(C(F)(F)F)cc2)cc1 [Example 3, p'-trifluoromethylphenyl p-n-hexylbenzoate]",58.8 °C
6,"CCCCCCCc1ccc(C(=O)Oc2ccc(C(F)(F)F)cc2)cc1 [Example 4, p'-trifluoromethylphenyl p-n-heptylbenzoate]",61.0 °C
7,CCCCCc1ccc(OC(=O)c2ccc(C(F)(F)C(F)(F)C(F)(C(F)(F)F)C(F)(F)F)cc2)cc1 [Example 18],57-58 °C
8,"CCCCCCCCc1ccc(C(=O)Oc2ccc(C(F)(F)F)cc2)cc1 [Example 5, p'-trifluoromethylphenyl p-n-octylbenzoate]",58.5 °C
9,"CCCCCOc1ccc(C(=O)Oc2ccc(C(F)(F)F)cc2)cc1 [Example 7, p'-trifluoromethylphenyl p-n-pentyloxybenzoate]",78.5 °C
10,Cc1ccc(OC(=O)c2ccc(C(F)(F)C(F)(F)C(F)(F)C(F)(F)C(F)(F)C(F)(F)C(F)(F)C(F)(F)F)cc2)cc1 [Example 17],111-112 °C
